In US10058550B2, “Methods of treating heart failure” (priority 2015, dated 2018):

Biological target: human APJ receptor (Homo sapiens (Human), UniProt P35414)
Experiment: biochemical
Type: biochemical
Conditions: read-out: Activity hAPJ SPA EC50 IP
Summary of the method: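 Membranes from CHO cells stably expressing cloned human APJ were incubated with WGA SPA beads in 20 mM HEPES pH 7.5, 5 mM MgCl2, 0.1% BSA, 200 mM NaCl and 3 μM GDP. Reaction started with 0.2 nM [35S]GTPγS ± ligands, 90 min at RT. EC50 obtained by non-linear regression as mean of independent experiments.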

Sequence of human APJ receptor (P35414 whole entry): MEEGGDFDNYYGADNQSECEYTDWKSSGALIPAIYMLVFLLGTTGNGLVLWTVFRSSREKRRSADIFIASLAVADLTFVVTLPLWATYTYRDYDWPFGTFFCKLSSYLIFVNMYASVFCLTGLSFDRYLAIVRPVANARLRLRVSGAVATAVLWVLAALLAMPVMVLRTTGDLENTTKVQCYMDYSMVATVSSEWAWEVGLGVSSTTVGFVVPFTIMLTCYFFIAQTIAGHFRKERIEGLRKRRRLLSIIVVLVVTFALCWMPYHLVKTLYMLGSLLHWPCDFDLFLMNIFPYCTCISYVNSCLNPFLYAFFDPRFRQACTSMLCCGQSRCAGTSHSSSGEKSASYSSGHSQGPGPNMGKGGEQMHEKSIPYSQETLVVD

Going from `COc1cccc(OC)c1-n1c(NS(=O)(=O)[C@@H](C)[C@@H](OC(C)C)c2ncc(C)cn2)nnc1-c1cccnc1` (single isomer, unassigned) [Example 627.0, (1R,2R)-N-(4-(2,6-dimethoxyphenyl)-5-(pyridin-3-yl)-4H-1,2,4-triazol-3-yl)-1-isopropoxy-1-(5-methylpyrimidin-2-yl)propane-2-sulfonamide or (1S,2S)-N-(4-(2,6-dimethoxyphenyl)-5-(pyridin-3-yl)-4H-1,2,4-triazol-3-yl)-1-isopropoxy-1-(5-methylpyrimidin-2-yl)propane-2-sulfonamide] to `COc1cccc(OC)c1-n1c(NS(=O)(=O)[C@H](C)[C@H](OC(C)C)c2ccc(Cl)cn2)nnc1-c1cncc(C)c1` (single isomer, unassigned) [Example 744.0, (1R,2R)-1-(5-chloropyridin-2-yl)-N-(4-(2,6-dimethoxyphenyl)-5-(5-methylpyridin-3-yl)-4H-1,2,4-triazol-3-yl)-1-isopropoxypropane-2-sulfonamide or (1S,2S)-1-(5-chloropyridin-2-yl)-N-(4-(2,6-dimethoxyphenyl)-5-(5-methylpyridin-3-yl)-4H-1,2,4-triazol-3-yl)-1-isopropoxypropane-2-sulfonamide], the EC50 rises from 1.1 nM to 26 nM (24-fold). The first is the more potent here.

Going from `COc1cccc(OC)c1-n1c(NS(=O)(=O)[C@@H](C)[C@@H](C)n2cc(C)cn2)nnc1-c1cncc(C)c1` (single isomer, unassigned) [Example 650.0] to `COc1cccc(OC)c1-n1c(NS(=O)(=O)[C@H](C)[C@H](OC(C)C)c2ccc(Cl)cn2)nnc1-c1cncc(C)c1` (single isomer, unassigned) [Example 745.0, (1R,2R)-1-(5-chloropyridin-2-yl)-N-(4-(2,6-dimethoxyphenyl)-5-(5-methylpyridin-3-yl)-4H-1,2,4-triazol-3-yl)-1-isopropoxypropane-2-sulfonamide or (1S,2S)-1-(5-chloropyridin-2-yl)-N-(4-(2,6-dimethoxyphenyl)-5-(5-methylpyridin-3-yl)-4H-1,2,4-triazol-3-yl)-1-isopropoxypropane-2-sulfonamide], the EC50 falls from 39 nM to 0.4 nM (98-fold).

First: COc1cccc(OC)c1-n1c(NS(=O)(=O)[C@@H](C)[C@@H](C)n2cc(C)cn2)nnc1-c1cncc(C)c1 (single isomer, unassigned) [Example 651.0]
Second: COc1cccc(OC)c1-n1c(NS(=O)(=O)[C@@H](C)[C@H](OC)C2CCC2)nnc1-c1cncc(C)c1 (single isomer, unassigned) [Example 719.0]
The EC50 of the first is 1.9-fold higher: 85 nM for the first, 44 nM for the second. The second is the more potent here.

First: COc1cccc(OC)c1-n1c(NS(=O)(=O)[C@@H](C)[C@@H](C)n2cc(C)cn2)nnc1-c1cncc(C)c1 (single isomer, unassigned) [Example 652.0]
Second: COc1cnc([C@@H](OC(C)C)[C@@H](C)S(=O)(=O)Nc2nnc(-c3cncc(C)c3)n2-c2c(OC)cccc2OC)cn1 (single isomer, unassigned) [Example 742.0, (1R,2R)-N-(4-(2,6-dimethoxyphenyl)-5-(5-methylpyridin-3-yl)-4H-1,2,4-triazol-3-yl)-1-isopropoxy-1-(5-methoxypyrazin-2-yl)propane-2-sulfonamide or (1S,2S)-N-(4-(2,6-dimethoxyphenyl)-5-(5-methylpyridin-3-yl)-4H-1,2,4-triazol-3-yl)-1-isopropoxy-1-(5-methoxypyrazin-2-yl)propane-2-sulfonamide]
The EC50 of the first is 81-fold lower: 0.43 nM for the first, 35 nM for the second. The first is the more potent here.

Compared with `CCOc1cccc(OC)c1-n1c(NS(=O)(=O)[C@@H](C)[C@H](OC)c2ncc(C)cn2)nnc1-c1cccc(OC)n1` (single isomer, unassigned) [Example 664.0, (1R,2S,P)—N-(4-(2-ethoxy-6-methoxyphenyl)-5-(6-methoxy-2-pyridinyl)-4H-1,2,4-triazol-3-yl)-1-methoxy-1-(5-methyl-2-pyrimidinyl)-2-propanesulfonamide or (1R,2S,M)-N-(4-(2-ethoxy-6-methoxyphenyl)-5-(6-methoxy-2-pyridinyl)-4H-1,2,4-triazol-3-yl)-1-methoxy-1-(5-methyl-2-pyrimidinyl)-2-propanesulfonamide], `COc1cccc(-c2nnc(NS(=O)(=O)[C@@H](C)[C@H](OC)c3ncc(C)cn3)n2-c2c(O)ncnc2OC)n1` (single isomer, unassigned) [Example 739.0, (1R,2S,M)-N-(4-(4-hydroxy-6-methoxypyrimidin-5-yl)-5-(6-methoxypyridin-2-yl)-4H-1,2,4-triazol-3-yl)-1-methoxy-1-(5-methylpyrimidin-2-yl)propane-2-sulfonamide or (1R,2S,P)-N-(4-(4-hydroxy-6-methoxypyrimidin-5-yl)-5-(6-methoxypyridin-2-yl)-4H-1,2,4-triazol-3-yl)-1-methoxy-1-(5-methylpyrimidin-2-yl)propane-2-sulfonamide] is 4.8-fold higher in EC50: 0.31 nM for the first, 1.5 nM for the second.

`COc1cnc([C@H](O)[C@@H](C)S(=O)(=O)Nc2nnc(-c3cccnc3)n2-c2c(OC)cccc2OC)cn1` (single isomer, unassigned) [Example 706.0, (1S,2R)-N-(4-(2,6-dimethoxyphenyl)-5-(3-pyridinyl)-4H-1,2,4-triazol-3-yl)-1-hydroxy-1-(5-methoxy-2-pyrazinyl)-2-propanesulfonamide or (1R,2S)-N-(4-(2,6-dimethoxyphenyl)-5-(3-pyridinyl)-4H-1,2,4-triazol-3-yl)-1-hydroxy-1-(5-methoxy-2-pyrazinyl)-2-propanesulfonamide] and `COc1cccc(OC)c1-n1c(NS(=O)(=O)[C@H](C)[C@@H](O)c2cn3ccccc3n2)nnc1-c1cccnc1` (single isomer, unassigned) [Example 735.0, (1S,2R)—N-(4-(2,6-dimethoxyphenyl)-5-(pyridin-3-yl)-4H-1,2,4-triazol-3-yl)-1-hydroxy-1-(imidazo[1,2-a]pyridin-2-yl)propane-2-sulfonamide or (1R,2S)—N-(4-(2,6-dimethoxyphenyl)-5-(pyridin-3-yl)-4H-1,2,4-triazol-3-yl)-1-hydroxy-1-(imidazo[1,2-a]pyridin-2-yl)propane-2-sulfonamide] are within 1.5-fold of each other in EC50: 0.34 nM for the first, 0.48 nM for the second.

Compared with `COc1ccnc(OC)c1-n1c(NS(=O)(=O)[C@@H](C)[C@H](OC)c2ccc(Cl)cn2)nnc1-c1cccnc1` (single isomer, unassigned) [Example 712.0], `COc1cccc(OC)c1-n1c(NS(=O)(=O)[C@H](C)[C@@H](O)c2cn3ccccc3n2)nnc1-c1cccnc1` (single isomer, unassigned) [Example 736.0, (1S,2R)—N-(4-(2,6-dimethoxyphenyl)-5-(pyridin-3-yl)-4H-1,2,4-triazol-3-yl)-1-hydroxy-1-(imidazo[1,2-a]pyridin-2-yl)propane-2-sulfonamide or (1R,2S)—N-(4-(2,6-dimethoxyphenyl)-5-(pyridin-3-yl)-4H-1,2,4-triazol-3-yl)-1-hydroxy-1-(imidazo[1,2-a]pyridin-2-yl)propane-2-sulfonamide] is 21-fold higher in EC50: 0.9 nM for the first, 19 nM for the second. The first is the more potent here.

Compared with `COc1cccc(-c2nnc(NS(=O)(=O)[C@@H](C)[C@@H](O)C3CC(F)(F)C3)n2-c2c(OC)cccc2OC)n1` (single isomer, unassigned) [Example 720.0], `COc1cccc(OC)c1-n1c(NS(=O)(=O)[C@@H](C)[C@H](OC)C2CC(C)(C)C2)nnc1-c1cncc(C)c1` (single isomer, unassigned) [Example 724.0] is 6.3-fold higher in EC50: 35 nM for the first, 220 nM for the second. The first is the more potent here.

Going from `COc1cccc(-c2nnc(NS(=O)(=O)[C@@H](C)[C@@H](O)C3CC(F)(F)C3)n2-c2c(OC)cccc2OC)n1` (single isomer, unassigned) [Example 722.0] to `COc1cccc(OC)c1-n1c(NS(=O)(=O)[C@@H](C)[C@H](OC)C2CC(C)(C)C2)nnc1-c1cncc(C)c1` (single isomer, unassigned) [Example 725.0], the EC50 rises from 1.7 nM to 36 nM (21-fold).

Compared with `COc1cccc(-c2nnc(NS(=O)(=O)[C@@H](C)[C@@H](O)C3CC(F)(F)C3)n2-c2c(OC)cccc2OC)n1` (single isomer, unassigned) [Example 723.0], `COc1cccc(OC)c1-n1c(NS(=O)(=O)[C@@H](C)[C@H](OC)C2CC(C)(C)C2)nnc1-c1cncc(C)c1` (single isomer, unassigned) [Example 726.0] is 3-fold higher in EC50: 2.5 nM for the first, 7.5 nM for the second.

Compared with `COc1cccc(OC)c1-n1c(NS(=O)(=O)[C@@H](C)[C@H](OC)C2CC(C)(C)C2)nnc1-c1cncc(C)c1` (single isomer, unassigned) [Example 727.0], `COc1cccc(OC)c1-n1c(NS(=O)(=O)C[C@H](O)c2ncc(C)cn2)nnc1-c1cncc(C)c1` (single isomer, unassigned) [Example 729.0, (R)—N-(4-(2,6-dimethoxyphenyl)-5-(5-methylpyridin-3-yl)-4H-1,2,4-triazol-3-yl)-2-hydroxy-2-(5-methylpyrimidin-2-yl)ethanesulfonamide or (S)—N-(4-(2,6-dimethoxyphenyl)-5-(5-methylpyridin-3-yl)-4H-1,2,4-triazol-3-yl)-2-hydroxy-2-(5-methylpyrimidin-2-yl)ethanesulfonamide] is 130-fold lower in EC50: 200 nM for the first, 1.5 nM for the second.

Work on `COc1cccc(-c2nnc(NS(=O)(=O)[C@@H](C)[C@H](OC)c3ncc(C)cn3)n2-c2c(O)ncnc2OC)n1` (single isomer, unassigned) [Example 740.0, (1R,2S,M)-N-(4-(4-hydroxy-6-methoxypyrimidin-5-yl)-5-(6-methoxypyridin-2-yl)-4H-1,2,4-triazol-3-yl)-1-methoxy-1-(5-methylpyrimidin-2-yl)propane-2-sulfonamide or (1R,2S,P)-N-(4-(4-hydroxy-6-methoxypyrimidin-5-yl)-5-(6-methoxypyridin-2-yl)-4H-1,2,4-triazol-3-yl)-1-methoxy-1-(5-methylpyrimidin-2-yl)propane-2-sulfonamide] yielded an EC50 of 56 nM.
